Data set [1] can be described thus: Metabolic stability of the compound in mouse liver extract assessed as compound remaining measured after 24 hrs in presence of mouse liver extract medium by RP-HPLC analysis relative to control. To be noted: read-out: Stability. It counts as ADME, tissue-based.
Data set [2] in a line: Chemical stability in PBS buffer assessed half life measured after 24 hrs in presence of CEM/0 cell extract medium by RP-HPLC analysis relative to control. It counts as physicochemical. To be noted: human, PBS buffer with CEM/0 cell extract.
Data set [3] in a line: Chemical stability in PBS buffer assessed dephosphorylated half life measured after 24 hrs in presence of CEM/0 cell extract medium by RP-HPLC analysis relative to control. It counts as physicochemical. As to conditions: human, PBS buffer with CEM/0 cell extract.
Data set [4] has as its system Human immunodeficiency virus 1. Briefly: Antiviral activity against HIV1 HE strain infected in CEM/0 cells assessed as inhibition of HIV induced cytopathogenic effects. It counts as functional, organism-based. As to conditions: Human immunodeficiency virus 1, HE, CCRF-CEM.
Data set [5] has as its system Human immunodeficiency virus 2. Briefly: Antiviral activity against HIV2 ROD infected in CEM/0 cells assessed as inhibition of HIV induced cytopathogenic effects. It counts as functional, organism-based. As to conditions: Human immunodeficiency virus 2, ROD, CCRF-CEM. In general terms: Damage to the host cells serves as the signal in cytopathic effect assays.
The test system of data set [6] is Human immunodeficiency virus 2. Kind of data set: Antiviral activity against […] HIV2 ROD infected in CEM-TK(-) cells assessed as inhibition of HIV induced cytopathogenic effects. It counts as functional, organism-based. To be noted: Human immunodeficiency virus 2, ROD.
The nature of data set [7]: Cytotoxicity in human CEM/0 cells assessed as reduction in cell viability. It counts as toxicity, cell-based. To be noted: CEM/0 cells (CCRF-CEM).
The nature of data set [8]: Metabolic stability of the compound in mouse liver extract assessed as hydrolysis half life measured after 24 hrs in presence of mouse liver extract medium by RP-HPLC analysis. It counts as ADME, tissue-based.
The test system of data set [9] is Human immunodeficiency virus. Kind of data set: Substrate activity at HIV reverse transcriptase assessed as DNA elongation using 5'-Cy3-CGTTG GTCCT GAAGG AGGAT AGG1T-3' as primer and 3'-GCAACCAGGACTTCCTCCTATCCAAAGACA-5' as template incubated at 37 degree C for 15 mins and at 80 degreeC for 3 mins by primer extension assay. To be noted: time 18.0 min.
For data set [10], the target named is DNA polymerase beta (Homo sapiens) (UniProt P06746). Kind of data set: Substrate activity at human DNA polymerase beta using 5'-Cy3-CGTTG GTCCT GAAGG AGGAT AGG1T-3' as primer and 3'-GCAACCAGGACTTCCTCCTATCCAAAGACA-5' as template incubated at 37 degree C for 60 mins and at 80 degreeC for 3 mins by primer extension assay. As to conditions: time 63.0 min.
The test system of data set [11] is Human immunodeficiency virus. Kind of data set: Substrate activity at HIV reverse transcriptase assessed as DNA elongation using 5'-Cy3-CGTTG GTCCT GAAGG AGGAT AGG1T-3' as primer and 3'-GCAACCAGGACTTCCTCCTATCCAAAGACA-5' as template incubated at 37 degree C for 15 mins and at 80 degreeC for 3 mins in presence of TTP by primer extension assay. To be noted: time 18.0 min.

The nature of data set [12]: Stability in PBS buffer assessed as clevage of first masking group half life in at pH 7.3 in presence of CEM/0 cell extract medium by RP-HPLC analysis. It counts as physicochemical. As to conditions: human, PBS buffer with CEM/0 cell extract.
Data set [13] is described as follows: Stability in buffer assessed as pig liver esterase-mediated clevage of first masking group half life at pH 7.3 by RP-HPLC analysis. It counts as ADME, tissue-based.
Data set [14] in a line: Stability of the compound assessed as cleaved half life in presence of CEM/0 cell extract medium measured upto 25 hrs by RP-HPLC analysis. As to conditions: human. It counts as physicochemical.
Data set [15] is described as follows: Metabolic stability of the compound in pig liver extract assessed as half life measured after 24 hrs in presence of pig liver extract medium by RP-HPLC analysis. It counts as ADME, tissue-based, Sus scrofa.

From ChEMBL document CHEMBL5113536, “Triphosphate Prodrugs of the Anti-HIV-Active Compound 3'-Deoxy-3'-fluorothymidine (FLT)” (J Med Chem, 2022) come the findings set out here.

Calls of active or inactive are those of the source.

Take `CCCCCCCCCCCCCCCCOP(=O)(O)OP(=O)(O)OP(=O)(O)OC[C@H]1O[C@@H](n2cc(C)c(=O)[nH]c2=O)C[C@@H]1F`: the remaining at 24 h in data set [1] is 39%.
For `Cc1cn([C@H]2C[C@H](O)[C@@H](COP(=O)(O)OP(=O)(O)OP(=O)(O)O)O2)c(=O)[nH]c1=O` [DEOXYTHYMIDINE_TRIPHOSPHATE], the half-life (usually the time needed for the level to fall by half in the phase considered) in data set [2] was 30 min; in data set [3], 25.8 min.
On to `Cc1cn([C@H]2C[C@H](F)[C@@H](CO)O2)c(=O)[nH]c1=O` [ALOVUDINE], for which the figures for the EC50 in data set [4], in data set [5] and in data set [6] were 1.6 nM, 3.2 nM and 70000 nM, respectively. Moreover, the CC50 (usually the concentration that lowers cell viability or growth by half) in [7] is over 100000 nM.
For `Cc1cn([C@H]2C[C@H](F)[C@@H](COP(=O)(O)OP(=O)(O)OP(=O)(O)O)O2)c(=O)[nH]c1=O.N.N.N.N`, the half-life is 30 min in [2], 25.8 min in [3] and 5.04 min in data set [8]. For the same molecule, the result in data set [9], in [10] and in data set [11] was Active.
For the molecule `CCCCCCCCCC(=O)Oc1ccc(COP(=O)(OCc2ccc(OC(=O)CCCCCCCCC)cc2)OP(=O)([O-])OP(=O)([O-])OC[C@H]2O[C@@H](n3cc(C)c(=O)[nH]c3=O)C[C@@H]2F)cc1.[Na+].[Na+]`, the half-life in data set [12] is 81 h; in data set [13], 3.16 min; in data set [14] it was 140 min.
Regarding `CCCCCCCCCCCCCCCCOP(=O)(OCc1ccc(OC(=O)CCC)cc1)OP(=O)(O)OP(=O)(O)OC[C@H]1O[C@@H](n2cc(C)c(=O)[nH]c2=O)C[C@@H]1F.N.N` (stereo partly drawn), the half-life in data set [14] was 144 min; in data set [15] it was 0.582 min.
